In patent US9045505B2, “Nitric oxide donors” (University of Otago, priority 2006, dated 2015):

Columns and labels:
[1] = test system: liver mitochondria; assay: S-nitrosation of mitochondrial protein thiols (chemiluminescence SNO assay); type: biochemical, rat; conditions: 500 μM
Procedure: FIG. 11 is a series of graphs showing S-nitrosation of mitochondrial thiols by MitoSNAP. (a) Time course of S-nitrosation of mitochondrial proteins by MitoSNAP. Liver mitochondria (1 mg protein) were incubated in 1 ml KCl buffer supplemented with rotenone and succinate in the presence of 5 μM MitoSNAP. At various times mitochondria were treated with 10 mM N-ethylmaleimide (NEM), isolated by centrifugation and the S-nitrosothiol content assessed. Data are of a typical experiment showing means±range of duplicate samples for each time point, each measured in duplicate. The experiment was repeated twice. (b) S-nitrosation of mitochondrial proteins by different concentrations of MitoSNAP and SNAP. Aliquots of liver mitochondria were incubated with the indicated concentrations of MitoSNAP or SNAP for […] in the presence or absence of 500 nM FCCP and then assessed for S-nitrosothiol content as in (a). For the +NEM sample, 10 mM NEM was added to the mitochondria and 1 min later 5 μM MitoSNAP was added and incubated for a further 2.5 min. Data are of a typical experiment showing means±range of duplicate samples for each time point, each measured in duplicate. The experiment was repeated twice. (c) S-nitrosation of cellular protein thiols by MitoSNAP. C2C12 cells were preincubated for 5 min in 2 ml cell culture medium containing either 20 μM FCCP or DMSO carrier, then 5 μM MitoSNAP or SNAP was added. After further incubation for 5 min at 37° C. in the dark, the medium was removed and the content of S-nitrosated proteins was measured. Data are means±range of the duplicate determinations. […] (d) S-nitrosation of a mitochondria-enriched cell subfraction. C2C12 cells were preincubated for 5 min in cell culture medium containing either 20 μM FCCP or dimethylsulfoxide (DMSO) carrier, then 5 μM MitoSNAP was added. After 5 min at 37° C. in the dark, the medium was removed and the cells were processed to isolate a mitochondria-enriched fraction and S-nitrosated protein was then determined Data are mean±sem of triplicate determinations (+MitoSNO1), or mean±range of duplicate determinations (+FCCP). (e & f) Visualisation of S-nitrosated mitochondrial proteins by copper/ascorbate-dependent labelling of thiols with a Cy3 fluorophore. Liver (e) or heart (f) mitochondria (1 mg protein) were incubated in 1 ml KCl buffer supplemented with rotenone and succinate in the presence of no additions, 10 μM MitoSNAP or 500 μM diamide for 5 min. S-nitrosated thiols were then selectively tagged with Cy3 maleimide and protein (10 μg) was then separated on a 12.5% SDS PAGE gel which was stained with coomassie blue and scanned for Cy3 fluorescence. The Cy3 fluorescence (SNO) and coomassie staining (coomassie) of each gel is shown.
FIG. 13 is a trace and graph showing limited S-nitrosation of mitochondria by DetaNONOate. […] Where indicated 500 μM DetaNONOate was added and the concentration of NO^• was measured over time, before 5 μM OxyHb was added. […] Then protein pellets were resuspended and processed for analysis of protein S-nitrosothiols. Control incubations in the presence of 10 mM NEM were also carried out. Data are means±range of two independent experiments each being the average of four mitochondrial incubations.
Nitrite, nitric oxide and S-nitrosothiol measurements. Nitrite was analyzed by the Griess assay (Molecular Probes). Nitric oxide was measured using an NO^• electrode (World Precision Instruments Ltd, UK) connected to an Apollo 4000 Free Radical Analyser. The electrode was inserted into a stirred, sealed 3 ml chamber with a Clark type O2 electrode (Rank Brothers, UK) built into its base and was thermostatted at 37° C. The NO^• electrode was calibrated by adding SNAP to argon-purged, saturated CuCl. OxyHb was prepared by reduction of bovine methemoglobin with sodium dithionite.

[2] = test system: rat liver mitochondria; assay: Membrane potential-dependent uptake into isolated mitochondria (TPP-selective electrode); type: biochemical
Procedure: FIG. 8 is a trace showing the uptake of MitoSNAP and MitoNAP by energized mitochondria measured using an ion-selective electrode. For (a) and (b) mitochondria (2 mg protein/ml) were incubated in KCl buffer supplemented with rotenone in a stirred 3 ml chamber thermostatted at 37° C. and shielded from ambient light. An electrode selective for the TPP cation was inserted and calibrated by five sequential 1 μM additions of MitoNAP (a) or MitoSNAP (b). Succinate (10 mM) was then added to energize the mitochondria, followed by the uncoupler FCCP (0.5 μM). Rapid uptake of MitoNAP by energized mitochondria was observed and this was reversed by abolishing the membrane potential with the uncoupler FCCP (a). Energised mitochondria also rapidly accumulated MitoSNAP (b). However, in contrast to MitoNAP, uncoupling apparently led to only partial release of the accumulated MitoSNAP (b). This apparent incomplete release of MitoSNAP on uncoupling is presumably because MitoSNAP is converted to MitoNAP within mitochondria and this generates a different response from the electrode.
(§1) Mitochondrial incubations were usually in KCl buffer (120 mM KCl, 10 mM HEPES, 1 mM EGTA, 100 μM N,N-bis(2-bis[carboxymethyl]aminoethyl) glycine (DTPA) and 10 μM neocuproine, pH 7.2) with 10 mM succinate and 4 μg/ml rotenone in the dark at 37° C., unless stated otherwise. An electrode selective for the TPP moiety of MitoSNAP and MitoNAP was made and used as described previously (Asin-Cayuela, J., Manas, A. R., James, A. M., Smith, R. A. & Murphy, M. P. Fine-tuning the hydrophobicity of a mitochondria-targeted antioxidant. FEBS Letts. 571, 9-16 (2004)). Respiration rates were measured in a Clark type O2 electrode (Rank Brothers, UK). To measure GSH and GSSG, mitochondria (1 mg protein/ml) were incubated with 0-10 μM MitoSNO1 or MitoNAP for 10 min, pelleted by centrifugation and the GSH and GSSG contents assessed by the recycling assay (Scarlett, J. L., Packer, M. A., Porteous, C. M. & Murphy, M. P. Alterations to glutathione and nicotinamide nucleotides during the mitochondrial permeability transition induced by peroxynitrite. Biochem. Pharmacol. 52, 1047-1055 (1996)). The measurement of exposed mitochondrial protein thiols is described below.
Rat liver mitochondria (1 mg protein/ml) in KCl buffer was incubated at 37° C. with 5 μM MitoSNO. 1 μM additions of MitoSNO were made sequentially before addition of 10 mM succinate. 200 nM FCCP was then added to uncouple the mitochondria. The concentrations of O2 and MitoSNO in solution were measured simultaneously using a Clark-type O2 electrode in combination with an ion-selective electrode for triphenylphosphonium cation (TPP^+). […] This can be seen in FIG. 3.
When succinate was added, the mitochondria started respiring and set up a Δψ, which caused a decrease in the MitoSNO concentration, as detected by the ion-selective electrode (FIG. 3). When the mitochondria were uncoupled by FCCP, a concomitant increase in the concentration of MitoSNO, or its derivatives, in the medium was detected by the ion-selective electrode. The amount of MitoSNO taken up into the mitochondria from the trace in FIG. 3 corresponds to ˜2.5 μM of the initial external concentration of 5 μM. Therefore 7.5 nmol MitoSNO have been taken up into 3 mg protein, and as the mitochondrial volume is ˜0.5 μl/mg protein (Brown, G. C. and Brand, M. D. Biochem J., 1985, 225, 399-405), the concentration of MitoSNO within mitochondria is ˜5 mM. This represents a 2000 fold concentration relative to the 2.5 μM present in the external medium, and is consistent with a Nernstian uptake of MitoSNO.

[3] = test system: liver mitochondria; assay: Exposed protein thiols, glutathionylation and GSH/GSSG in liver mitochondria; type: biochemical, rat; conditions: mitochondria; MitoSNAP 5 μM
Procedure: as §1
Small molecules were removed by centrifugation through MicroBioSpin Columns (cut off=6 kDa), the eluate was clarified by centrifugation (2 min at 10,000×g) and protein thiols measured in triplicate by mixing 10 μl sample or GSH standard with 160 μl of 200 μM dithionitrobenzoic acid (DTNB) in 80 mM NaPi, 1 mM EDTA, pH 8 in a 96 well plate and absorbance at 412 nm was measured after 30 min at room temperature and the thiol content determined from the GSH standard curve. The protein concentration was measured in parallel by the bicinchonininc assay using BSA as a standard.
The interaction of MitoSNAP with mitochondrial thiol proteins is likely to initiate a dynamic process that may lead to other protein thiol modifications, such as disulfide formation, glutathionylation, sulfenylation or sulfenylamide formation, in addition to persistent S-nitrosation. To assess these, the content of reactive, solvent-exposed thiols on native liver mitochondrial proteins was measured. […] This is consistent with the finding that the maximum extent of mitochondrial protein S-nitrosation by 5 μM MitoSNAP (˜500 pmol SNO/mg protein; FIG. 11) was only ˜1% of the total number of protein thiols available. A small amount of MitoSNAP binding to mitochondrial thiol proteins through the formation of mixed disulfides was detectable by immunoblotting.

[4] = test system: liver or heart mitochondria; assay: Visualisation of S-nitrosated mitochondrial proteins by Cy3 maleimide labelling; type: biochemical, rat; conditions: 10 μM MitoSNAP or 500 μM diamide, 5 min
Procedure: FIG. 11 is a series of graphs showing S-nitrosation of mitochondrial thiols by MitoSNAP. (a) Time course of S-nitrosation of mitochondrial proteins by MitoSNAP. Liver mitochondria (1 mg protein) were incubated in 1 ml KCl buffer supplemented with rotenone and succinate in the presence of 5 μM MitoSNAP. At various times mitochondria were treated with 10 mM N-ethylmaleimide (NEM), isolated by centrifugation and the S-nitrosothiol content assessed. Data are of a typical experiment showing means±range of duplicate samples for each time point, each measured in duplicate. The experiment was repeated twice. (b) S-nitrosation of mitochondrial proteins by different concentrations of MitoSNAP and SNAP. Aliquots of liver mitochondria were incubated with the indicated concentrations of MitoSNAP or SNAP for […] in the presence or absence of 500 nM FCCP and then assessed for S-nitrosothiol content as in (a). […] Data are of a typical experiment showing means±range of duplicate samples for each time point, each measured in duplicate. […] After further incubation for 5 min at 37° C. in the dark, the medium was removed and the content of S-nitrosated proteins was measured. […] S-nitrosated thiols were then selectively tagged with Cy3 maleimide and protein (10 μg) was then separated on a 12.5% SDS PAGE gel which was stained with coomassie blue and scanned for Cy3 fluorescence. […]

[5] = test system: HeLa cells; assay: Cell hypoxia experiment, extracellular pO2 by fluorescence quenching oximetry; type: cell-based; conditions: 1% O2, 30 min incubation, compared to untreated controls
Procedure: FIG. 10 is a series of traces and graphs showing the effect of MitoSNAP on respiration in cells. (a-d) Jurkat cells (55×10^6 cells) were incubated in PBS supplemented with 25 mM Hepes pH 7.2 (NaOH), 1 mM sodium pyruvate, 10 μM neocuproine and 100 μM DTPA in the stirred 2.5 ml chamber of an oxygen electrode at 37° C. with 5 μM MitoSNAP (a), MitoNAP (b), SNAP (c) or MitoSNAP and FCCP (500 nM) (d). Where indicated 5 μM OxyHb was added. Traces show typical experiments that were repeated at least three times. Sections of the 02 electrode trace where OxyHb was added for (a) and (b) have been expanded 4-fold in the vertical dimension to facilitate inspection. […] Cellular pO2 values, measured by fluorescence quenching oximetry and expressed as mean±sd, are shown. […]
HeLa cells were seeded and grown to 100% confluence with 15 ml medium/dish on 165 cm^2 dishes. […] Extracellular pO2 measurements were taken by fluorescence quenching oximetry (Oxylite-2000; Oxford Optronix). […]
To evaluate the selective uptake of MitoSNAP by mitochondria within cells, the effect of MitoSNAP on respiration by Jurkat cells, a T lymphocyte cell line that grows in suspension, was measured using an O2 electrode (FIG. 10). […] Then the effects of a further 30 min incubation with MitoSNAP, MitoNAP or the mitochondrial inhibitor myxathiazol on the steady-state extracellular pO2 was assessed by fluorescence quenching oximetry (FIG. 10e).

Compound: NCCN(CCN)/[N+]([O-])=N/O [Deta-NONOate, 3,3-bis(aminoethyl)-1-hydroxy-2-oxo-1-tri azene, reference compound]
- NO concentration generated compared with 5 μM MitoSNAP [1]: five to ten-fold greater
- S-nitrosation less than that caused by 5 μM MitoSNAP [1]: ~30 fold
- S-nitrosation of mitochondrial proteins ([1]; 5 min): ~20 pmol SNO/mg protein

Compound: O=NSCCCC[P+](c1ccccc1)(c1ccccc1)c1ccccc1.[Br-] [MitoSNO]
- amount taken up into 3 mg protein ([2]; 5 μM MitoSNO, succinate): 7.5 nmol
- uptake by isolated mitochondria ([2]; energized with 10 mM succinate, reversed by FCCP): taken up by isolated mitochondria
- concentration within mitochondria ([2]; mitochondrial volume ~0.5 μl/mg protein): ~5 mM
- amount taken up into the mitochondria, as part of the initial external concentration of 5 μM ([2]; rat liver mitochondria 1 mg protein/ml, 5 μM MitoSNO, succinate): ~2.5 µM
- effect on mitochondrial respiration ([2]; rat liver mitochondria, 5 μM MitoSNO): inhibited respiration by NO release
- concentration relative to the external medium ([2]; relative to 2.5 μM in the external medium): 2000 fold

Compound: CN(C)C(=O)/N=N/C(=O)N(C)C [diamide, reference compound]
- protein-glutathione mixed disulfides (glutathionylation) [3]: extensive glutathionylation
- Cy3 labelling of S-nitrosated proteins [4]: did not label proteins

Compound: CO/C(=C/C(N)=O)[C@H](C)[C@H](/C=C/c1csc(-c2csc([C@@H](C)/C=C/C=C/C(C)C)n2)n1)OC [myxathiazol, reference compound]
- effect on steady-state extracellular pO2 during hypoxia [5]: increased extracellular O2
